The text below walks through data of PMC11755785 (Langmuir, 2025).

Broadly, the pKa is the negative logarithm of the acid dissociation constant. The log P is a log measure of how a compound divides between an organic and an aqueous phase.

Where two headings read alike, the source gives them in different places. Some results are limits rather than exact numbers.

On the set-up of data set [1]: method as in PMID 34606770. The following applies: Chart 1; cited from earlier work.
The conditions of data set [2]: cited from earlier work.
Data set [3] in a line: Phase-solubility diagram with HP-β-CD. It counts as physicochemical. Further details: stability constant K1:2 with HP-β-CD: unit not given here.
Data set [4] can be described thus: UVA1 (365 nm) photodegradation in aqueous buffer, UV–vis spectra / RP-HPLC. The data set is classed as physicochemical. As to conditions: for UVA1 photodegradation (spectral change): 50 μM, aqueous; for disruption on exposure to UV light: 4 h. As for the experimental part: (§1) The samples were obtained after passage for appropriate periods and measured using an UV–vis spectrophotometer in the maximum range between 200 and 700 nm (arranged on demand) from long wavelengths toward short wavelengths to avoid unnecessary irradiation of the UV region. To obtain HPLC chromatograms, aliquots of the UV-irradiated solution were obtained by pipetting at 0, 1/5, 1/2, 1, 2, 3, 4, 24, 48, 72, 96, 120, 144, and 168 h for AVB and at 0, 1, 2, 3, and 18 h for CUR. To obtain those of OXB in the absence or presence of β-CD, the invariable samples were certified at 0 and 48 h. For the samples in acetonitrile aqueous solution or methanol aqueous solution at a ratio of 7:3, the time evolution of the UVA1 irradiated solution was examined under similar conditions.

A short description of data set [5]: Photostability under solar light, UV–vis spectra. It counts as physicochemical. The following applies: solar light 4 h, 50 μM. As to the method:
The photostability of the drug under solar light was evaluated using UV–vis spectral measurements. Sample solutions were exposed to solar light outdoors at a sunny location on a latitude of 35.92° N and a longitude of 139.91° E for 4 h, from 12:00 to 16:00, at an average temperature of 284.55 K.

A short description of data set [6]: Phase-solubility diagram with β-CD. As to the method:
The solutions were mechanically shaken at 298 K in a thermostatic chamber, and the supernatant was sampled and filtered after passage for appropriate periods. The concentration of the drug in the supernatant was determined using HPLC.
The phase-solubility diagram consists of the equilibrium concentration of the guest drug as the ordinate and the total concentration of the host CD as the abscissa.[45] If a straight line and parabolic curve can be approximated on the phase-solubility diagram, then, the curves are classified as AL- and AP-types in the Higuchi and Connors catalogs, respectively.[45],[46]
Multiple regression analysis of the measured data set to the total concentration of the host ([CD]) and its squares ([CD]^2) using eq 3 can be used to obtain the stability constants for a combination of the equimolar complex K1:1 and double-host associating complex K1:2.[45],[46] [drawing 3] 3 This is the sum of the dissociated (free) and associated (complexed) drug concentrations. Although the Benesi–Hildebrand equation with the square of the host concentration has been used for parabolic correlations, its validity remains unclear.
This curve is classified as the AN-type on the Higuchi and Connors catalog.[45]−[48] The curve is described by eq 4′ according to the Langmuir adsorption isotherm model.[47]−[51] To process with the linear regression analysis of ordinate ([CD]/γ) referred to abscissa ([CD]), the Hanes–Woolf expression in eq 4′ may be used [drawing 4] 4 [drawing 5] 4′ where n indicates the asymptotic concentration of the drug associated with CD (saturation, maximal γ) and K is equivalent to the drug/CD complex stability constant. […] The stoichiometry of a complex of drugs with CD is difficult to determine; the prevailing opinion is that more than one guest molecule incorporates a host molecule and that hydration or ionization of the guest regulates the solubility of the complex.[46]
Szejtili[46] stated that, in rare cases, the ascending region at lower host concentrations is followed by a plateau region, similar to that of the AN-type saturation curve. Simultaneously, it terminates at any host concentration threshold. It is named the BS-type in the Higuchi and Connors catalog,[45]−[48] and for concentrations higher than the threshold, the guest concentration decreases along a hyperbola, probably according to the solubility product KSP.[49] To analyze this type of pattern, a hypothesis that is yet to be discussed is required.[52] […] At the threshold concentration of CD, the scale of the aggregated dispersoids transcends an upper limit, and the aggregation induces subsequent sedimentation.[52] Thus, the solubility product may be considered a property of poorly soluble aggregated dispersoids containing a tolerable amount of the drug and an excess amount of CD.

A short description of data set [7]: Flask-shaking 1-octanol/water partition, log D–pH profile fitted to Avdeef's diagram. It counts as physicochemical. The following applies: modified Britton–Robinson buffers pH 5–11.5, 298 K. As for the experimental part: The aqueous-phase solvents were prepared by mixing 25 mM KH2PO4 and 25 mM Na2HPO4 solutions in 25 mM Pi buffer. The pH was adjusted before fixing the prescribed concentrations of the acid components of the buffer. The JP1 and JP2 buffer solutions were 10 mM sodium citrate/HCl buffer (pH 1.2) and Pi buffer (pH 6.8), which were prepared in compliance with the description for solution media for the dissolution test in Japanese Pharmacopeia (JP)-implemented international harmonization. The modified Britton–Robinson universal pH buffer comprised 28.6 mM KH2PO4, 28.6 mM HBO2, and 28.6 mM NaCl, titrated with 1 M NaOH (here, modified means elimination of barbital to cancel its interaction with organic solutes). For the partition equilibrium examination, the aqueous saturated 1-octanol phase comprised 1-octanol, which was flooded with a modified Britton–Robinson buffer adjusted to the appropriate pH in advance.
The hydrophobic drug dissolved in the aqueous saturated 1-octanol phase was mixed with an isochoric solution of the modified Britton–Robinson buffer (pH 5–11.5), saturated with 1-octanol. Thereafter, the samples in the screw-capped vials were machine-shaken at 298 K in a thermostatic chamber for 60 min and subsequently kept stationary for 60 min; the procedure corresponds to the conventional “flask-shaking” method.[41]−[43] After settling, the pH in the aqueous phase was confirmed using pH indicator strips (MColoHast pH 0–6.0, MQuant pH 7.5–14, and MQuant pH 0–14, Merck, Germany) to be that of the adjusted pH value. Aliquots (10 μL) from the 1-octanol and the aqueous layers were injected into the HPLC instrument. The 1-octanol/water partition coefficients, log P (equivalent to log KOW), and acid dissociation constants, pKa, were optimized using curve fitting, approximated by eq 1 [drawing 1] 1 which is Avdeef’s diagram[44] derived from the Henderson–Hasselbalch expression for the equilibrium between the protonated and deprotonated species. The curve-fitting procedures used the solver module of Microsoft Excel 2016 with the implemented GRG nonlinear option. Approximate curves corresponding to these optimized parameters were drawn, and the pKa and log P values for AVB, OXB, and CUR were obtained.

Data set [8] is described as follows: UVA1 (365 nm) photodegradation in isochoric acetonitrile/water solvent. The data set is classed as physicochemical. As for the experimental part:
as §1

The conditions of data set [9]: cited from earlier work. This is another data set of the same source.
The conditions of data set [10]: cited from earlier work. This is another data set of the same source.
Details of data set [11]: method as in Yan et al. 95. As to conditions: ref Yan et al. 95; cited from earlier work.
Where [12] appears, read: 25 mM Pi/NaOH buffer pH 6.8, 298 K, Figure 2, in M-1 (unit assumed).
The mark [13] stands for this setting: 25 mM Pi/NaOH buffer pH 6.8, 298 K, Figure 2.

As to `CCOCCOC(=O)C=Cc1ccc(OC)cc1` [Cinoxate, cinoxate], the water solubility result in data set [1] is “high water solubility”.
For `O=S(=O)(O)c1ccc2[nH]c(-c3ccccc3)nc2c1` [Ensulizole, ensulizole], the “risk / toxicity property” value in [1] was “With photo-oxidizing properties”.
Take `CC(O)COC[C@H]1O[C@@H]2O[C@H]3[C@H](O)[C@@H](O)[C@@H](O[C@H]4[C@H](O)[C@@H](O)[C@@H](O[C@H]5[C@H](O)[C@@H](O)[C@@H](O[C@H]6[C@H](O)[C@@H](O)[C@@H](O[C@H]7[C@H](O)[C@@H](O)[C@@H](O[C@H]8[C@H](O)[C@@H](O)[C@@H](O[C@H]1[C@H](O)[C@H]2O)O[C@@H]8COCC(C)O)O[C@@H]7COCC(C)O)O[C@@H]6COCC(C)O)O[C@@H]5COCC(C)O)O[C@@H]4COCC(C)O)O[C@@H]3COCC(C)O` (stereo partly drawn) [HP-β-CD, hydroxypropyl-β-cyclodextrin]: in data set [2], the aqueous solubility result is recorded as “more than 400 mmol/L”.
Regarding `CC1CC(OC(=O)c2ccccc2O)CC(C)(C)C1` (stereo not shown) [Homosalate, homosalate], the “risk / toxicity property” value in [1] was “endocrine-disrupting”.
Regarding `COc1ccc(C(=O)c2ccccc2)c(O)c1` [OXB], the “stability constant K1:1 with HP-β-CD” value in data set [3] (setting [12]) was 366.8. For the same compound, the “phase-solubility diagram type (Higuchi and Connors) with HP-β-CD” value in [3] (pH 6.8) was “AL-type”. Also, the “UVA1 photodegradation (spectral change)” value in data set [4] (absence of β-CD) and in data set [4] (presence of β-CD) was “maintenance of the OXB spectrum for 2 days” throughout. For the same compound, in data set [2] (Chart 1), the “log Kow” value is recorded as 3.79. Besides, the “reported pKa” value in data set [2] is recorded as 7.6. Besides, in data set [5] (presence or absence of β-CD), the “stability under solar light compared to UVA1 irradiation” value is “more significant than that observed under UVA1 irradiation”. For the same compound, the “stability constant K1:1 with β-CD” value in data set [6] (setting [12]) is listed as 2019. In [7] (from log D–pH curve fitting, read-out: acid dissociation constant, pKa), the pKa was found to be 7.97. For the same compound, the logP in data set [7] (neutral form, curve fitting, read-out: 1-octanol/water partition coefficient, log P) was 2.99. The “concentration change under UVA1 irradiation (290 nm absorbance)” value in [8] (up to 50 h) is given as “marginally reduced”.
Take `CCCCC(CC)COC(=O)C=Cc1ccc(OC)cc1` (stereo not shown) [Octinoxate (OCX), octinoxate]: the “risk / toxicity property” value in data set [1] is “toxic risks for the marine ecosystem”.
Consider `CCCCC(CC)COC(=O)C(C#N)=C(c1ccccc1)c1ccccc1` (stereo not shown) [Octocrylene (OCR), octocrylene], for which the biodegradability entry in [1] is reported as “poorly biodegradable”.
`CCCCC(CC)COC(=O)c1ccc(N(C)C)cc1` (stereo not shown) [Padimate-O, padimate O]: the “risk / toxicity property” value in [1] was “insignificant risks”.
In the case of curcumin, the “stability constant K1:2 with HP-β-CD” value in [3] (setting [13]) is given as 2.302. Further, the “stability constant K1:1 with HP-β-CD” value in data set [3] (setting [12]) is given as 6619; in data set [3] (pH 6.8), 6619 M^–1; in [10] (ref Celebioglu and Uyar 84) it was 3073 M^–1; in data set [10] (ref Li et al. 85) it was 2941 M^–1. Further, the “phase-solubility diagram type (Higuchi and Connors) with HP-β-CD” value in [3] (pH 6.8) is “AP-type”. Further, the “disruption on exposure to UV light” value in [4] (solution containing β-CD) is given as 31.90%; in data set [4] (solution without β-CD), 40.95%. The “log P” value in data set [2] is on record as 3.2. Moreover, the “updated pKa (first value)” value in data set [2] is listed as 7.56. The “updated pKa (second value)” value in data set [2] was 8.72. In data set [2], the “updated pKa (third value)” value is reported as 10.17. For the same compound, the “pKa (keto-enol)” value in [2] (first of three pKa values) is reported as 7.8. In [2] (second of three pKa values), the “pKa (first phenolic OH)” value was 8.5. For the same compound, the “pKa (second phenolic OH)” value in [2] (third of three pKa values) is reported as 9.0. In data set [5] (presence of β-CD), the “change in absorption peaks under solar light” value is “significant changes in absorption peaks”. Further, the “CUR saturation concentration in reported AN-type diagram” value in [9] was at most 0.00012 mM. For the same compound, the “stability constant K1:1 with β-CD” value is given as 198 M^–1 in [9] (ref Chen et al. 83), 487.3 M^–1 in data set [9] (ref Mashaqbef et al. 81), 771.7 in data set [6] (setting [12]) and 771.7 M^–1 in [6] (pH 6.8). For the same compound, the “CUR solubility in reported phase-solubility diagram” value in data set [9] (speculated by the authors from the report) was at most 16 µM. For the same compound, the “stability constant K1:2 with β-CD” value in [6] (setting [13]) amounted to 74.41. In addition, the “phase-solubility diagram type (Higuchi and Connors) with β-CD” value in [6] (pH 6.8) is reported as “AP-type”. Besides, the “acid dissociation constant, pKa” value in data set [7] (from log D–pH curve fitting) came to 8.81. Further, the “1-octanol/water partition coefficient, log P” value in [7] (neutral form, curve fitting) came to 2.65. Besides, in data set [8] (UVA1 365 nm, 25 μM), the “effect of equimolar and 4 mM β-CD on photodegradation velocity / first-order rate” value was “decreased”. Besides, the “degradation under 425 nm light compared to 620 nm light” value in [11] was 1.7 times faster.
